For orientation: inhibition means the share of the control response that was lost under treatment.

These results are taken from patent US12637471B2, “Heterocyclic compounds, compositions, methods of preparation and uses thereof” (Organon R&D Finland Ltd, priority 2021, dated 2026).

Holding throughout (assay type): biochemical
The target of assay [1] is T1, Recombinant human aldo-keto reductase family 1 member C2 (AKR1C2) protein (Homo sapiens, UniProt P52895).
T1 construct: made in house; host or cells: Sf-9 insect cells (baculovirus)
T1 sequence (P52895 1-323): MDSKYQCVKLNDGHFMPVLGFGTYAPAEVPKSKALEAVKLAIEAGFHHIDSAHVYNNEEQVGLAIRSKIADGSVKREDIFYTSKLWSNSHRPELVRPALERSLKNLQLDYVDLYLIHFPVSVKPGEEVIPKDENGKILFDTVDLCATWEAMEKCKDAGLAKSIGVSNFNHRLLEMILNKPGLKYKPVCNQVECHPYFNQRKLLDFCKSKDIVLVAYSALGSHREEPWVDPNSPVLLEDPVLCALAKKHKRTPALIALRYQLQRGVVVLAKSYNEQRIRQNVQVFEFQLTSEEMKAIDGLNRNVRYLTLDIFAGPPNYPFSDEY
Put plainly: Inhibition of the aldo-keto reductase family 1 member C2, 3H-dihydrotestosterone conversion. To be noted: inhibitor at 10 μM. As to the method: Inhibition of the Aldo-Keto Reductase Family 1 Member C2
Recombinant human aldo-keto reductase family 1 member C2 (AKR1C2) protein (GenBank Accession No. NM_001354.6) produced in Sf-9 insect cells with baculovirus was used for screening. Recombinant protein (13.6 nM/0.5 μg/ml) was incubated in 20 mM KH2PO4 pH 7.4, 1 mM EDTA, complete protease inhibitor tablet, 1 mM NADPH with 6.25 nM ^3H-labelled dihydrotestosterone for 45 min at +37° C., in the presence of the potential inhibitor at 10 μM concentration. Inhibitor stock solutions were prepared in DMSO. Final concentration of DMSO was adjusted to 1% in all samples. The enzyme reaction was stopped by addition of 10% trichloroacetic acid (final concentration 1%). Samples were filtrated through […] filtration plate (Merck). Analyses of samples was done with Waters Acquity UPLC H-class equipped with XBridge C18 column and XBridge VanGuard C18 guard column. Acetonitrile: 0.1% formic acid in water (42/58 v/v) with flow of 1.2 ml/min was used for mobile phase. The eluent was mixed with scintillant and the radioactivity was monitored in the eluate by a Scintillation Analyser. The conversion percentage of triated substrate (dihydrotestosterone) to tritiated product (5α-androstane-3α,17β-diol) for each sample was determined by the relative percentages of substrate and product in the chromatogram. The inhibition percentages of samples were calculated using following formula: […]

In assay [2] the target is T2, Recombinant human AKR1C3 (17β-HSD5) protein (Homo sapiens, UniProt P42330).
T2 construct: made in house; host or cells: E. coli
T2 sequence (P42330 1-323): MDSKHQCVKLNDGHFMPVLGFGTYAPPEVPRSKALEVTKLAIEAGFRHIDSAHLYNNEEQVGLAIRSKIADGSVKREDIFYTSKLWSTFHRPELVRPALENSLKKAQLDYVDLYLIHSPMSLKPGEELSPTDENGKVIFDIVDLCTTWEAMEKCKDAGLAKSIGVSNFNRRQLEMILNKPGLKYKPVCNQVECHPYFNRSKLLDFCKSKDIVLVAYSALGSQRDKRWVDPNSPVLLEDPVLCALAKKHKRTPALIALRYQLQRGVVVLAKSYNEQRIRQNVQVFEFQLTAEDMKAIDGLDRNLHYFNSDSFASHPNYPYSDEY
Put plainly: Inhibition of AKR1C3 (17β-hydroxysteroid dehydrogenase type 5) enzyme, fluorescence assay. To be noted: inhibitor at 500 nM. As to the method: Inhibition of AKR1C3 (17β-Hydroxysteroid Dehydrogenase Type 5) Enzyme
Recombinant human AKR1C3 (17β-HSD5) protein (GenBank Accession No. NM_003739.6) produced in E. coli was used for screening. Recombinant protein (27 nM/1 μg/ml) was incubated in 20 mM KH2PO4, 1 mM EDTA, complete protease inhibitor cocktail, pH 7.4 with 1 μM 9-acetyl-2,3,6,7-tetrahydro-1H,5H,11H-pyrano[2,3-f]pyrido[3,2,1-ij]quinolin-11-one and 1 mM NADPH for 60 to 120 min at RT, in the presence of the potential inhibitor at 500 nM concentration. Inhibitor stock solutions were prepared in DMSO. Final concentration of DMSO was adjusted to 1% in all samples. The samples were analysed by fluorescent measurement with Tecan Spark microplate reader at wavelengths 420 nm for excitation and 510 nm for emission. Samples were evaluated against standards of 9-(1-hydroxyethyl)-2,3,6,7-tetrahydro-1H,5H,11H-pyrano[2,3-f]pyrido[3,2,1-ij]quinolin-11-one at concentrations 1 μM-10 nM. Background fluorescence was reduced from all the samples and standards. The concentrations of formed product were calculated from the standard curve with Tecan Spark Magellan software. The formed product concentrations were used to calculate conversion percentages. The inhibition percentages for the samples were calculated from the conversion percentages.
Inhibition percentages of samples were calculated using following formula: […]

Assay [3] addresses T3, 17β-Hydroxysteroid Dehydrogenase Type 2 Enzyme (17β-HSD2) (Homo sapiens, UniProt P37059).
T3 construct: made in house; host or cells: Sf-9 insect cells (baculovirus)
T3 sequence (P37059 1-387): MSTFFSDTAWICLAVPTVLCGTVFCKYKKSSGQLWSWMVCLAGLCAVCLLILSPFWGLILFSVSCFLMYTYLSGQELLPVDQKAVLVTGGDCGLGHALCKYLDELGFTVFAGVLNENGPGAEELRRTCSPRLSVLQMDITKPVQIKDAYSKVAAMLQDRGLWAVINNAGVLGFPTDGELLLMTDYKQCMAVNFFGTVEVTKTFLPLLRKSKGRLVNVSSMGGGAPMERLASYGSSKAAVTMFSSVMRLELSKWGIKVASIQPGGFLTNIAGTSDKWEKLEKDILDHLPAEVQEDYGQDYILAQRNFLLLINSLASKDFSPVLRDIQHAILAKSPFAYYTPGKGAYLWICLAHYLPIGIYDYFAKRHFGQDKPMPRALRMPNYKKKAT
Put plainly: Inhibition of the 17β-hydroxysteroid dehydrogenase type 2 enzyme, 3H-testosterone conversion. The note with it: inhibitor at 10 μM. As for the experimental part: Inhibition of the 17β-Hydroxysteroid Dehydrogenase Type 2 Enzyme
Recombinant human 173-HSD2 protein (GenBank Accession No. NM_002153.3) produced in Sf-9 insect cells with baculovirus was used for screening.
Recombinant protein (105 nM/4.5 μg/ml) was incubated in 20 mM KH2PO4 pH 8.5, 1 mM EDTA, complete protease inhibitor cocktail, 1 mM NAD with 56.25 nM testosterone (including ^3H-labelled testosterone) for 30 min at RT, in the presence of the potential inhibitor at 10 μM concentration. Inhibitor stock solutions were prepared in DMSO. Final concentration of DMSO was adjusted to 1% in all samples. The enzyme reaction was stopped by addition of 10% trichloroacetic acid (final concentration 1%). Samples were filtrated through […] filtration plate. Analyses of samples was done with Waters Acquity UPLC H-class equipped with XBridge C18 column and XBridge VanGuard C18 guard column. Acetonitrile: 0.1% formic acid in water (42/58 v/v) with flow of 1.2 ml/min was used for mobile phase. The eluent was mixed with scintillant and the radioactivity was monitored in the eluate by a Scintillation Analyser. The conversion percentage of tritiated substrate (testosterone) to product tritiated (androstenedione) for each sample was determined by the relative percentages of substrate and product in the chromatogram. The inhibition percentages of samples were calculated using following formula: […]

`COCC1CCN(C(=O)N2CCC(=C(C#N)c3ccc(F)cc3)CC2)CC1` [Compound 106, 2-(4-fluorophenyl)-2-(1-(4-(methoxymethyl)piperidine-1-carbonyl)piperidin-4-ylidene)acetonitrile]: the results for the inhibition at 10 µM in assay [1] and in assay [3] were 5% and 2%, respectively. Also, in assay [2], the inhibition at 0.5 µM is 93%.

In the case of `N#CC(=C1CCN(C(=O)N2C3CCC2COC3)CC1)c1ccc(F)cc1F` [Compound 37, 2-(1-(3-oxa-8-azabicyclo[3.2.1]octane-8-carbonyl)piperidin-4-ylidene)-2-(2,4-difluorophenyl)acetonitrile], the inhibition at 10 µM in assay [1] is 14%; in assay [3], 25%. Further, the inhibition at 0.5 µM in assay [2] stood at 96%.

Consider `N#CC(=C1CCN(C(=O)N2CCc3sccc3C2)CC1)c1cccc2[nH]ncc12` [Compound 114, 2-(1H-indazol-4-yl)-2-(1-(4,5,6,7-tetrahydrothieno[3,2-c]pyridine-5-carbonyl)piperidin-4-ylidene)acetonitrile], for which the inhibition at 10 µM in assay [1] worked out at 11%; in assay [3], 34%. Besides, the inhibition at 0.5 µM in assay [2] turned out to be 97%.

On to `N#CC(=C1CCN(C(=O)N2CCOCC2)CC1)c1ccc(C(F)(F)F)cc1` [Compound 147, 2-(1-(morpholine-4-carbonyl)piperidin-4-ylidene)-2-(4-(trifluoromethyl)phenyl)acetonitrile], for which the inhibition at 10 µM in assay [1] amounted to 5%; in assay [3], 4%. Further, the inhibition at 0.5 µM in assay [2] stood at 99%.

Consider `CC(C)OC1CCN(C(=O)N2CCC(=C(C#N)c3ccc(Cl)cc3)CC2)CC1` [Compound 133, 2-(4-chlorophenyl)-2-(1-(4-isopropoxypiperidine-1-carbonyl)piperidin-4-ylidene)acetonitrile], for which the inhibition at 10 µM was 16% in assay [1] and 23% in assay [3]. Also, the inhibition at 0.5 µM in assay [2] turned out to be 97%.

As to `N#CC(=C1CCN(C(=O)N2CCn3cncc3C2)CC1)c1ccc(OC(F)(F)F)cc1` [Compound 55, 2-(1-(5,6,7,8-tetrahydroimidazo[1,5-a]pyrazine-7-carbonyl)piperidin-4-ylidene)-2-(4-(trifluoromethoxy)phenyl)acetonitrile], the inhibition at 10 µM in assay [1] was 3%; in assay [3] it was 7%. The inhibition at 0.5 µM in assay [2] amounted to 97%.

For the molecule `N#CC(=C1CCN(C(=O)N2CCC(CO)CC2)CC1)c1ccc(F)cc1` [Compound 19, 2-(4-fluorophenyl)-2-(1-(4-(hydroxymethyl)piperidine-1-carbonyl)piperidin-4-ylidene)acetonitrile], the inhibition at 10 µM in assay [1] was determined as 12%; in assay [3], 19%. Further, the inhibition at 0.5 µM in assay [2] came out at 99%.

Turning to `N#CC(=C1CCN(C(=O)N2CCC(C(F)(F)F)CC2)CC1)c1ccc(Cl)cn1` [Compound 135, 2-(5-chloropyridin-2-yl)-2-(1-(4-(trifluoromethyl)piperidine-1-carbonyl)piperidin-4-ylidene)acetonitrile], the results for the inhibition at 10 µM in assay [1] and in assay [3] were 3% and 4%, respectively. Besides, in assay [2], the inhibition at 0.5 µM came out at 92%.

As to `N#CC(=C1CCN(C(=O)N2CCn3ncnc3C2)CC1)c1ccc(Cl)cn1` [Compound 165, 2-(5-chloropyridin-2-yl)-2-(1-(5,6,7,8-tetrahydro-[1,2,4]triazolo[1,5-a]pyrazine-7-carbonyl)piperidin-4-ylidene)acetonitrile], the inhibition at 10 µM in assay [1] was found to be 9%; in assay [3], 6%. For the same molecule, the inhibition at 0.5 µM in assay [2] stood at 95%.

For the molecule `CC(O)C1CCN(C(=O)N2CCC(=C(C#N)c3cccc(Cl)c3)CC2)CC1` (stereo not drawn) [Compound 154, 2-(3-chlorophenyl)-2-(1-(4-(1-hydroxyethyl)piperidine-1-carbonyl)piperidin-4-ylidene)acetonitrile], the values for the inhibition at 10 µM in assay [1] and in assay [3] were 14% and 26%, respectively. Besides, the inhibition at 0.5 µM in assay [2] was 98%.
